Patent US10023587B2, “Oxabicycloheptanes and oxabicycloheptenes, their preparation and use” (LIXTE BIOTECHNOLOGY, INC., priority 2007, dated 2018)
pIC50: −log10 of the molar value. Like-named read-outs stand apart in the source and are kept apart here.

Experiments:
DAOY cells = test: DAOY xenograft tumor growth in SCID mice; format: in vivo; conditions: subcutaneous in SCID mice, ip daily for 20 days (FIG. 18)
Protocol: For in vivo experiments, subcutaneously implanted tumor cells are allowed to grow over 7 days to a size of 5-7 mm. On day 7, drug administration is begun ip daily for 20 days. The maximum perpendicular diameters of the tumor masses are measured every 2 to 5 days. On the 21st day after initiation of treatment, the animals are sacrificed and dissected free of the subcutaneous tissues and measured.

HT-29 cells = test: CellTiter-Glo assay, HT-29; format: cell-based; conditions: Homo sapiens; HT-29 Colon, 72 hr; read-out: IC50 (50% Inhibition of Proliferation)
Protocol: (§1) MDA-MB-231, HT-29, NCI-H460, NCI-H522, NCI-H69, GXF-209, HepG2, OVAR-3, PANC-1, DU-145, LNCAP, HL-60, K-562, and MOLT-4 cell lines were either obtained from the American Type Culture Collection (ATCC; Manassas, Va.), or from the National Cancer Institute (NCI; Frederick, Md.). RPMI-1640 media, L-glutamine dipeptide (HyQ SG-200), and HEPES were obtained from Hyclone (Logan, Utah).
(§2) All cell lines were routinely cultured twice weekly in RPMI-1640 medium supplemented with 2 mM L-glutamine dipeptide, 10 mM HEPES, and 10% FBS.
(§3) The adherent cell lines MDA-MB-231, HT-29, NCI-H460, NCI-H522, GXF-209, HepG2, OVAR-3, PANC-1, DU-145, and LNCAP cells were each seeded into two 96-well plates at 2,500 cells per well in a total volume of 50 uL and incubated in a 37° C. humidified 5% CO2 cell culture incubator overnight. The suspension cell lines NCI-H69, HL-60, K-562, and MOLT-4 were each seeded into two 96-well plates at 10,000 cell per well in a total volume of 50 uL and incubated in a 37° C. humidified 5% CO2 incubator overnight.
(§4) This was followed by making 2× stocks of the final concentrations required in RPMI-1640 medium. […]
(§5) Briefly, plates were removed from the incubator and placed on the bench at room temperatures for 30 minutes. […] Luminescence was then recorded using the PerkinElmer Microbeta scintillation and luminescence counter (Trilux).

NCI-H460 cells = test: CellTiter-Glo assay, NCI-H460; format: cell-based; conditions: Homo sapiens; NCI-H460 Lung: large cell, 72 hr; read-out: IC50 (50% Inhibition of Proliferation)
Protocol: as §1, §2, §3, §4, §5

GXF-209 cells = test: CellTiter-Glo assay, GXF-209; format: cell-based; conditions: Homo sapiens; GXF-209 Stomach, 72 hr; read-out: IC50 (50% Inhibition of Proliferation)
Protocol: as §1, §2, §3, §4, §5

HepG2 cells = test: CellTiter-Glo assay, HepG2; format: cell-based; conditions: Homo sapiens; HepG2 Liver, 72 hr; read-out: IC50 (50% Inhibition of Proliferation)
Protocol: as §1, §2, §3, §4, §5

OVCAR-3 cells = test: CellTiter-Glo assay, OVCAR-3; format: cell-based; conditions: Homo sapiens; OVCAR-3 Ovary adenoca, 72 hr; read-out: IC50 (50% Inhibition of Proliferation)
Protocol: as §1, §2, §3, §4, §5

PANC-1 cells = test: CellTiter-Glo assay, PANC-1; format: cell-based; conditions: Homo sapiens; PANC-1 Pancreas, 72 hr; read-out: IC50 (50% Inhibition of Proliferation)
Protocol: as §1, §2, §3, §4, §5

HL-60 cells = test: CellTiter-Glo assay, HL-60; format: cell-based; conditions: Homo sapiens; HL-60 Leukemia promyelocytic, 72 hr; read-out: IC50 (50% Inhibition of Proliferation)
Protocol: as §1, §2, §3, §4, §5

CP Control = test: Antifungal susceptibility testing (broth dilution), CP Control; format: cell-based; conditions: read-out: minimum inhibitory concentration (MIC)
Protocol: (§6) Anti-fungal testing was completed with a common lot for compounds 100 and 102.
(§7) A 10 mg portion of each powder was weighed out and added to 1 ml of sterile distilled water for compound 100 and DMSO for compound 102. The resulting concentration of […] was diluted to a working concentration of 640 μg/ml for each compound. All subsequent dilutions were also made using the respective diluents. Final testing concentrations ranged from 0.125-64 μg/ml.
(§8) A total of 23 isolates were tested to include 3 Candida albicans, 3 Candida glabrata, 3 Cryptococcus neoformans, 3 Aspergillus fumigatus, 3 Rhizopus oryzae, 3, Fusarium solani, 3 Pseudallescheria boydii, and 2 […] rubrum. All isolates were clinical isolates submitted to the Fungus Testing Laboratory for evaluation. Antifungal susceptibility testing was accomplished according to the methods outlined in the National Committee for Clinical Laboratory Standards, M-27A2, Reference Method for Broth Dilution Antifungal Susceptibility Testing of Yeasts; Approved Standard, and M38-A “Reference Method for Broth Dilution Antifungal Susceptibility Testing of Conidium-Forming Filamentous Fungi; Approved Standard”. This includes testing in RPMI-1640 with glutamine and without bicarbonate, an inoculum size of 0.5-2.5×10^3 for yeasts or 1-5×10^4 for moulds, and incubation at 35° C. for 24 and 48 hours.

C. glabrata = test: Antifungal susceptibility testing (broth dilution), C. glabrata; format: cell-based, Candida glabrata; conditions: for MIC: Nakaseomyces glabratus, read-out: minimum inhibitory concentration (MIC)
Protocol: as §6, §7, §8

C. neoformans = test: Antifungal susceptibility testing (broth dilution), C. neoformans; format: cell-based, Cryptococcus neoformans; conditions: for MIC: Cryptococcus neoformans, read-out: minimum inhibitory concentration (MIC)
Protocol: as §6, §7, §8

P. boydii = test: Antifungal susceptibility testing (broth dilution), P. boydii; format: cell-based, Pseudallescheria boydii; conditions: for MIC: Scedosporium boydii, read-out: minimum inhibitory concentration (MIC)
Protocol: as §6, §7, §8

CC(C)(C)OC(=O)N1CCN(C(=O)C2C(C(=O)O)[C@H]3CC[C@@H]2O3)CC1 (stereo in doubt) [Compound 102, 4-(3-Carboxy-7oxa-bicyclo[2.2.1]heptane-2-carbonyl)piperazine-1-carboxylic acid tert-butyl ester]
Effect on DAOY xenograft tumor growth (in words) (DAOY cells): inhibit the proliferation | pIC50 (HT-29 cells): 5.44 | pIC50 (NCI-H460 cells): 4.76 | pIC50 (GXF-209 cells): 5.28 | pIC50 (HepG2 cells): 4.66 | pIC50 (OVCAR-3 cells): 5.29 | pIC50 (PANC-1 cells): 4.68 | pIC50 (HL-60 cells): 5.19 | MIC (CP Control; 24 Hours): > 64 µg/mL | MIC (CP Control; 48 Hours): > 64 µg/mL | MIC (C. glabrata; isolate 07-2964, 24 Hours): > 64 µg/mL | MIC (C. glabrata; isolate 07-2964, 48 Hours): > 64 µg/mL | minimum inhibitory concentration (MIC) (C. glabrata; isolate 07-2965, 24 Hours): >64 µg/mL | minimum inhibitory concentration (MIC) (C. glabrata; isolate 07-2965, 48 Hours): >64 µg/mL | minimum inhibitory concentration (MIC) (C. glabrata; isolate 07-3013, 24 Hours): >64 µg/mL | minimum inhibitory concentration (MIC) (C. glabrata; isolate 07-3013, 48 Hours): >64 µg/mL | MIC (C. neoformans; isolate 07-2665, 24 Hours): > 64 µg/mL | MIC (C. neoformans; isolate 07-2665, 48 Hours): > 64 µg/mL | minimum inhibitory concentration (MIC) (C. neoformans; isolate 07-2737, 24 Hours): >64 µg/mL | minimum inhibitory concentration (MIC) (C. neoformans; isolate 07-2737, 48 Hours): >64 µg/mL | minimum inhibitory concentration (MIC) (C. neoformans; isolate 07-2829, 24 Hours): >64 µg/mL | minimum inhibitory concentration (MIC) (C. neoformans; isolate 07-2829, 48 Hours): >64 µg/mL | MIC (P. boydii; isolate 07-1333, 24 Hours): > 64 µg/mL | MIC (P. boydii; isolate 07-1333, 48 Hours): > 64 µg/mL | minimum inhibitory concentration (MIC) (P. boydii; isolate 07-1502, 24 Hours): >64 µg/mL | minimum inhibitory concentration (MIC) (P. boydii; isolate 07-1502, 48 Hours): >64 µg/mL | minimum inhibitory concentration (MIC) (P. boydii; isolate 07-1601, 24 Hours): >64 µg/mL | minimum inhibitory concentration (MIC) (P. boydii; isolate 07-1601, 48 Hours): >64 µg/mL

CN1CCN(C(=O)C2C(C(=O)O)[C@H]3CC[C@@H]2O3)CC1 (some centres unmarked) [Compound 100, Endothall 4-Methylpiperazine Monoamide]
Effect on DAOY xenograft tumor growth (in words) (DAOY cells): inhibit the proliferation | pIC50 (HT-29 cells): 5.28 | pIC50 (NCI-H460 cells): 4.61 | pIC50 (GXF-209 cells): 5.10 | pIC50 (HepG2 cells): 4.50 | pIC50 (OVCAR-3 cells): 5.54 | pIC50 (PANC-1 cells): 4.60 | pIC50 (HL-60 cells): 5.11 | MIC (CP Control; 24 Hours): > 64 µg/mL | MIC (CP Control; 48 Hours): > 64 µg/mL | MIC (C. glabrata; 24 h): > 64 µg/mL | MIC (C. glabrata; 48 h): > 64 µg/mL | minimum inhibitory concentration (MIC) (C. glabrata; isolate 07-2965, 24 Hours): >64 µg/mL | minimum inhibitory concentration (MIC) (C. glabrata; isolate 07-2965, 48 Hours): >64 µg/mL | minimum inhibitory concentration (MIC) (C. glabrata; isolate 07-3013, 24 Hours): >64 µg/mL | minimum inhibitory concentration (MIC) (C. glabrata; isolate 07-3013, 48 Hours): >64 µg/mL | MIC (C. neoformans; 24 h): > 64 µg/mL | MIC (C. neoformans; 48 h): > 64 µg/mL | minimum inhibitory concentration (MIC) (C. neoformans; isolate 07-2737, 24 Hours): >64 µg/mL | minimum inhibitory concentration (MIC) (C. neoformans; isolate 07-2737, 48 Hours): >64 µg/mL | minimum inhibitory concentration (MIC) (C. neoformans; isolate 07-2829, 24 Hours): >64 µg/mL | minimum inhibitory concentration (MIC) (C. neoformans; isolate 07-2829, 48 Hours): >64 µg/mL | MIC (P. boydii; 24 h): > 64 µg/mL | MIC (P. boydii; 48 h): > 64 µg/mL | minimum inhibitory concentration (MIC) (P. boydii; isolate 07-1502, 24 Hours): >64 µg/mL | minimum inhibitory concentration (MIC) (P. boydii; isolate 07-1502, 48 Hours): >64 µg/mL | minimum inhibitory concentration (MIC) (P. boydii; isolate 07-1601, 24 Hours): >64 µg/mL | minimum inhibitory concentration (MIC) (P. boydii; isolate 07-1601, 48 Hours): >64 µg/mL
